Reference: patent publication US20200069772A1, “METHODS OF TREATING EARLY RHEUMATOID ARTHRITIS” (BRISTOL-MYERS SQUIBB COMPANY, priority 2014, published 2020)
“And” between values parts separate entries of the source, which are not always exact repeats. Equal values may be shown once.

Tests used:
[1] = system: patients with early RA; test: AVERT phase 3b randomized active-controlled trial: signs and symptoms (DAS-defined remission, other remission and ACR measures); format: in vivo, human
Protocol: Patients receiving oral corticosteroids were required to be on a stable dose (≤10 mg/day for ≥4 weeks) at initiation and to maintain that dose until Month 12.
All patients received concomitant folic acid therapy.
Patients with DAS28 (CRP)≥3.2 were discontinued.
For the purpose of this study, DAS-defined remission was DAS28 (CRP)<2.6.
Exploratory endpoints included: Other remission rates (Simplified Disease Activity Index [SDAI; ≤3.3], Clinical Disease Activity Index [CDAI; ≤2.8] and Boolean remission [28-joint tender joint count ≤1 and 28-joint swollen joint count ≤1 and patient global assessment of disease activity [0-10 cm]≤1 and high-sensitivity CRP≤1 mg/dL]), American College of Rheumatology (ACR) responses and Major Clinical Response (ACR 70 response for 6 months at any time period) in each arm.
Co-primary endpoints were tested in hierarchical fashion. […] All patients who discontinued prior to completing the treatment or withdrawal period were imputed as non-responders for the Month 12 or 18 analyses.
Endpoints of Disease Activity Score (DAS)-defined remission, SDAI remission, CDAI remission, Boolean remission, ACR 20/50/70 response and Major Clinical Response over time were summarized using descriptive statistics (with 95% confidence intervals at each time point).
For each treatment arm, a post hoc analysis was performed of mean baseline characteristics for patients who achieved DAS-defined remission at only Month 12 and at both Months 12 and 18, and of the proportions of patients who achieved DAS-defined remission based on these characteristics. An analysis of the overall treatment effect in mean change from baseline in DAS28 (CRP) (including data up to Month 12 of the treatment period) was performed for each treatment arm. Overall treatment effect and treatment differences between the three arms were obtained using a longitudinal repeated measures model including fixed categorical effects of treatment, months, and prior corticosteroid use as well as the continuous fixed covariate of baseline value. An unstructured covariance matrix was used to represent the correlation of the repeated measures within each subject.

[2] = system: patients with early RA; test: AVERT trial: HAQ-DI response (≥0.3 points reduction from baseline); format: in vivo, human; settings: Month 12
[3] = treatment period, compared subgroups not stated

## CN(Cc1cnc2nc(N)nc(N)c2n1)c1ccc(C(=O)N[C@@H](CCC(=O)O)C(=O)O)cc1 [MTX, methotrexate]
[1]; Month 12 of treatment period, patients with baseline DAS28 (CRP), discontinuations imputed as non-responders
  proportion of patients in DAS-defined remission (DAS28 [CRP]<2.6) at Month 12: 45.2%
[1]; after withdrawal of all RA therapy at Month 12, only patients with DAS28 (CRP) available at baseline
  proportion of patients in DAS-defined remission (DAS28 [CRP]<2.6) at both Months 12 and 18: 7.8%
[1]; of the patients who entered the withdrawal period in DAS-defined remission at Month 12
  patients remaining in DAS-defined remission at Month 18: 16.9%
[1]; post hoc subgroup: baseline DAS28 (CRP) >Median (5.4)
  Proportion of Patients with DAS-defined Remission (DAS28 [CRP] < 2.6) at Both Months 12 and 18: 3/55 (5.5) %
[1]; post hoc subgroup: baseline DAS28 (CRP) Missing
  Proportion of Patients with DAS-defined Remission (DAS28 [CRP] < 2.6) at Both Months 12 and 18: 0/1 (0) %
[1]; post hoc subgroup: baseline DAS28 (CRP) ≤Median (5.4)
  Proportion of Patients with DAS-defined Remission (DAS28 [CRP] < 2.6) at Both Months 12 and 18: 6/60 (10.0) %
[1]; post hoc subgroup: baseline Erosion >Median (4.5)
  Proportion of Patients with DAS-defined Remission (DAS28 [CRP] < 2.6) at Both Months 12 and 18: 3/50 (6.0) %
[1]; post hoc subgroup: baseline Erosion >Q1 (1.5)-Q2 (4.5)
  Proportion of Patients with DAS-defined Remission (DAS28 [CRP] < 2.6) at Both Months 12 and 18: 2/23 (8.7) %
[1]; post hoc subgroup: baseline Erosion >Q2 (4.5)-Q3 (8.5)
  Proportion of Patients with DAS-defined Remission (DAS28 [CRP] < 2.6) at Both Months 12 and 18: 2/23 (8.7) %
[1]; post hoc subgroup: baseline Erosion >Q3 (8.5)
  Proportion of Patients with DAS-defined Remission (DAS28 [CRP] < 2.6) at Both Months 12 and 18: 1/27 (3.7) %
[1]; post hoc subgroup: baseline Erosion Missing
  Proportion of Patients with DAS-defined Remission (DAS28 [CRP] < 2.6) at Both Months 12 and 18: 2/13 (15.4) %
[1]; post hoc subgroup: baseline Erosion ≤Median (4.5)
  Proportion of Patients with DAS-defined Remission (DAS28 [CRP] < 2.6) at Both Months 12 and 18: 4/53 (7.5) %
[1]; post hoc subgroup: baseline Erosion ≤Q1 (1.5)
  Proportion of Patients with DAS-defined Remission (DAS28 [CRP] < 2.6) at Both Months 12 and 18: 2/30 (6.7) %
[1]; post hoc subgroup: baseline HAQ-DI >Median (1.375)
  Proportion of Patients with DAS-defined Remission (DAS28 [CRP] < 2.6) at Both Months 12 and 18: 5/49 (10.2) %
[1]; post hoc subgroup: baseline HAQ-DI Missing
  Proportion of Patients with DAS-defined Remission (DAS28 [CRP] < 2.6) at Both Months 12 and 18: 0/11 (0) %
[1]; post hoc subgroup: baseline HAQ-DI ≤Median (1.375)
  Proportion of Patients with DAS-defined Remission (DAS28 [CRP] < 2.6) at Both Months 12 and 18: 4/56 (7.1) %
[1]; post hoc subgroup: baseline Osteitis >Median (0.5)
  Proportion of Patients with DAS-defined Remission (DAS28 [CRP] < 2.6) at Both Months 12 and 18: 3/49 (6.1) %
[1]; post hoc subgroup: baseline Osteitis >Q1 (0)-Q2 (0.5)
  Proportion of Patients with DAS-defined Remission (DAS28 [CRP] < 2.6) at Both Months 12 and 18: 0/5 (0) %
[1]; post hoc subgroup: baseline Osteitis >Q2 (0.5)-Q3 (5)
  Proportion of Patients with DAS-defined Remission (DAS28 [CRP] < 2.6) at Both Months 12 and 18: 2/26 (7.7) %
[1]; post hoc subgroup: baseline Osteitis >Q3 (5)
  Proportion of Patients with DAS-defined Remission (DAS28 [CRP] < 2.6) at Both Months 12 and 18: 1/23 (4.3) %
[1]; post hoc subgroup: baseline Osteitis Missing
  Proportion of Patients with DAS-defined Remission (DAS28 [CRP] < 2.6) at Both Months 12 and 18: 2/13 (15.4) %
[1]; post hoc subgroup: baseline Osteitis ≤Median (0.5)
  Proportion of Patients with DAS-defined Remission (DAS28 [CRP] < 2.6) at Both Months 12 and 18: 4/54 (7.4) %
[1]; post hoc subgroup: baseline Osteitis ≤Q1 (0)
  Proportion of Patients with DAS-defined Remission (DAS28 [CRP] < 2.6) at Both Months 12 and 18: 4/49 (8.2) %
[1]; post hoc subgroup: baseline Pain (100 mm VAS) >Median (62)
  Proportion of Patients with DAS-defined Remission (DAS28 [CRP] < 2.6) at Both Months 12 and 18: 2/45 (4.4) %
[1]; post hoc subgroup: baseline Pain (100 mm VAS) Missing
  Proportion of Patients with DAS-defined Remission (DAS28 [CRP] < 2.6) at Both Months 12 and 18: 0/11 (0.0) %
[1]; post hoc subgroup: baseline Pain (100 mm VAS) ≤Median (62)
  Proportion of Patients with DAS-defined Remission (DAS28 [CRP] < 2.6) at Both Months 12 and 18: 7/60 (11.7) %
[1]; post hoc subgroup: baseline Synovitis >Median (4.5)
  Proportion of Patients with DAS-defined Remission (DAS28 [CRP] < 2.6) at Both Months 12 and 18: 3/56 (5.4) %
[1]; post hoc subgroup: baseline Synovitis >Q1 (2)-Q2 (4.5)
  Proportion of Patients with DAS-defined Remission (DAS28 [CRP] < 2.6) at Both Months 12 and 18: 1/23 (4.3) %
[1]; post hoc subgroup: baseline Synovitis >Q2 (4.5)-Q3 (8.5)
  Proportion of Patients with DAS-defined Remission (DAS28 [CRP] < 2.6) at Both Months 12 and 18: 1/30 (3.3) %
[1]; post hoc subgroup: baseline Synovitis >Q3 (8.5)
  Proportion of Patients with DAS-defined Remission (DAS28 [CRP] < 2.6) at Both Months 12 and 18: 2/26 (7.7) %
[1]; post hoc subgroup: baseline Synovitis Missing
  Proportion of Patients with DAS-defined Remission (DAS28 [CRP] < 2.6) at Both Months 12 and 18: 2/13 (15.4) %
[1]; post hoc subgroup: baseline Synovitis ≤Median (4.5)
  Proportion of Patients with DAS-defined Remission (DAS28 [CRP] < 2.6) at Both Months 12 and 18: 4/47 (8.5) %
[1]; post hoc subgroup: baseline Synovitis ≤Q1 (2)
  Proportion of Patients with DAS-defined Remission (DAS28 [CRP] < 2.6) at Both Months 12 and 18: 3/24 (12.5) %
[1]; post hoc subgroup: symptom duration >6 Months
  Proportion of Patients with DAS-defined Remission (DAS28 [CRP] < 2.6) at Both Months 12 and 18: 2/39 (5.1) %
[1]; post hoc subgroup: symptom duration >Median (0.37 years)
  Proportion of Patients with DAS-defined Remission (DAS28 [CRP] < 2.6) at Both Months 12 and 18: 4/47 (8.5) %
[1]; post hoc subgroup: symptom duration ≤6 Months
  Proportion of Patients with DAS-defined Remission (DAS28 [CRP] < 2.6) at Both Months 12 and 18: 7/77 (9.1) %
[1]; post hoc subgroup: symptom duration ≤Median (0.37 years)
  Proportion of Patients with DAS-defined Remission (DAS28 [CRP] < 2.6) at Both Months 12 and 18: 5/69 (7.2) %
[1]; [3]
  time with DAS28 (CRP) <2.6 during the treatment period (first value of 'x vs y'): 5.8 months
  time with DAS28 (CRP) <2.6 during the treatment period (second value of 'x vs y'): 5.7 months
[2]
  HAQ-DI Response (≥0.3), proportion of patients: 44.0% and 51 (44.0) %
